Measured values reported in patent publication US7618975B2, “4-arylamino-quinazolines and analogs as activators of caspases and inducers of apoptosis and the use thereof” (Myriad Pharmaceuticals, Inc., priority 2003, dated 2009).
pIC50: −log10 of the molar value. Structures can show the parent of a compound that is named as a salt. Where two headings read alike, the source gives them in different places.

Key:
[1] = test system: tubulin (Cytoskeleton #ML113, MAP-rich); experiment: Inhibition of tubulin polymerization (DAPI fluorescence); assay type: biochemical; conditions: 30 minutes preincubation, 30 minutes at 37° C.
Method: Lyophilized tubulin (Cytoskeleton #ML113, 1 mg, MAP-rich) was assayed for the effect of the test compound on tubulin polymerization as measured by change in fluorescence for 4′,6-diamidino-2-phenylindole (DAPI) (Barron, D. M. et al. Analytical Biochem., 2003, 315, 49-56.). 1 μl of serial dilutions of each test compound (from 100×DMSO stock) was added in 96 well plate format and preincubated for 30 minutes with 94 ul of the non-GTP supplemented tubulin supernatant. 5 μl of DAPI/GTP solution was added to initiate polymerization and incubated for 30 minutes at 37° C. Fluorescence was read with excitation 350 nm, emission wavelength 485 nm on a Tecan Spectraflour Plus. Polymerized tubulin (DMSO and with the tubulin stabilizer Taxol® (paclitaxel)) gives a higher DAPI fluorescence as compared to non-polymerized tubulin (vinblastine and colchicine used to determine baseline).

[2] = target: T1, Topoisomerase I (Homo sapiens, UniProt P11387); experiment: Topoisomerase I activity assay (relaxation of supercoiled DNA, gel); conditions: FIG. 2
T1 sequence (P11387 1-765): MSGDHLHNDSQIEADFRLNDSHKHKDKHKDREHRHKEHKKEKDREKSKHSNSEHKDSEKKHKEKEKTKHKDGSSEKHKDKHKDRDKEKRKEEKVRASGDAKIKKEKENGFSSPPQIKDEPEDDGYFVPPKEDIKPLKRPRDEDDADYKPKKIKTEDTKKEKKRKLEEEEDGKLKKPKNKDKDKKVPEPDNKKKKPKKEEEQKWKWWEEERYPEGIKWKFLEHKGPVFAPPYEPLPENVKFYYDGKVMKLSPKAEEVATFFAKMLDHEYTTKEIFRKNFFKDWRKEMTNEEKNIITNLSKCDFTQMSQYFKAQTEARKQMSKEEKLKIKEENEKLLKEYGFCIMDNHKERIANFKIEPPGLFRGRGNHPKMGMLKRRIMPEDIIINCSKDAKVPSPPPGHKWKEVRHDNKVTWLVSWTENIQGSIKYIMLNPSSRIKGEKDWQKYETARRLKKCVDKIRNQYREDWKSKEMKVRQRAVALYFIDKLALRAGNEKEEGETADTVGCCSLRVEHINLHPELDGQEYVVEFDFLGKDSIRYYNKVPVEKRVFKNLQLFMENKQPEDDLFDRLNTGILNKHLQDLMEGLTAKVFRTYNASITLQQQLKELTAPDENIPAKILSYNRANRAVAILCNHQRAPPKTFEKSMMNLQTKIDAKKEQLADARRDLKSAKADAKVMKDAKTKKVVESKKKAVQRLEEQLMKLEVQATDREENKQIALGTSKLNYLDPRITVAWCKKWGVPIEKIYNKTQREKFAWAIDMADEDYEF

[3] = target: Topoisomerase II (Homo sapiens, UniProt P11388); experiment: Topoisomerase II activity assay (relaxation of supercoiled DNA, gel); conditions: FIG. 1, Example 1 Compound at 100 μM
[4] = test system: T-47D cells; experiment: Caspase cascade activation (N-(Ac-DEVD)-N′-ethoxycarbonyl-R110 fluorogenic substrate) in T-47D cells; assay type: cell-based, Human; conditions: for Caspase activity Ratio T-47D (24 hr) / Caspase activity Ratio T-47D (48 hr): ratio of net RFU to control; for EC50: Homo sapiens, T47D
[5] = test system: T-47D cells; experiment: Inhibition of cell proliferation (GI50, CellTiter-Glo); assay type: cell-based; conditions: Homo sapiens, T47D; 48 h incubation
Method: (§1) T-47D, DLD, H1299, MX-1 and SW620 cells were grown and harvested as in Example 143. […] An aliquot of 45 μL of cells was added to a well of a 96-well microtiter plate containing 5 μL of a 10% DMSO in RPMI-1640 media solution without compound as the control sample for maximal cell proliferation (LMax). The samples were mixed by agitation and then incubated at 37° C. for 48 h in a 5% CO2-95% humidity incubator. After incubation, the samples were removed from the incubator and 25 μL of CellTiter-Glo™ reagent (Promega) was added. The samples were mixed by agitation and incubated at room temperature for 10-15 min. Plates were then read using a luminescent plate reader (Model SPECTRAfluor Plus, Tecan) to give Ltest values.
(§2) The samples were mixed by agitation and then incubated at 37° C. for 0.5 h in a 5% CO2-95% humidity incubator. After incubation, the samples were removed from the incubator and 25 μL of CellTiter-Glo™ reagent (Promega) was added. The samples were mixed by agitation and incubated at […] 10-15 min at room temperature in a 5% CO2-95% humidity incubator. Fluorescence was read as above, (LStart) defining luminescence for initial cell number used as baseline in GI50 determinations.

[6] = test system: MX-1 cells; experiment: as above; assay type: cell-based; conditions: Homo sapiens, MX1; 48 h incubation
Method: as §1, §2

[7] = test system: SW620 cells; experiment: as above; assay type: cell-based; conditions: Homo sapiens, SW-620; 48 h incubation
Method: as §1, §2

[8] = test system: H1299 cells; experiment: as above; assay type: cell-based; conditions: Homo sapiens, NCI-H1299; 48 h incubation
Method: as §1, §2

[9] = test system: DLD cells; experiment: as above; assay type: cell-based; conditions: Homo sapiens; 48 h incubation
Method: as §1, §2

[10] = target: tyrosine kinase of Epidermal Growth Factor Receptor (Homo sapiens, UniProt P00533); conditions: Rewcastle et al. 1995; read-out: IC50 EGFR tyrosine kinase; cited from earlier work
[11] = target: T2, Human Type II Topoisomerase (p170 Form) (Homo sapiens, UniProt P11388); experiment: Photo-crosslinking of radiolabeled compound to Topoisomerase II; assay type: binding; conditions: 50 nM, 60 minutes, UV 254 nm; FIG. 3
T2 construct: purchased TopoGEN, Inc., Columbus, Ohio
Method: 30 Units (15 ul) Human Type II Topoisomerase (p170 Form) (from TopoGEN, Inc., Columbus, Ohio) was incubated with 50 nM radiolabeled Example 102 compound for 60 minutes at room temperature.
(Radiolabeled Example 102 compound stock is 16.67 uM, 60 Ci/mmol, 1 Ci/ml American Radiolabeled Chemicals, Inc., St. Louis, Mo. Samples were either UV irradiated (+) with a short wavelength UV Source (254 nm) for 10 minutes at a distance of 3.5 cm or not irradiated (−). 8 ul of 5× sample buffer (150 mM Tris, pH 6.8, 50% glycerol, 1% SDS, 50 mM dithiothreitol, 62 mg/ml bromophenol blue) was added to the samples and boiled for 5 minutes. The entire sample was then loaded onto a 6% Tris-Glycine SDS-gel (10 well, 1.5 mm thickness) (Invitrogen, Carlsbad, Calif.). The gel was stained with 1% Coomassie Brilliant Blue in 40% methanol, 7.5% acetic acid for 2 hours then de-stained in several changes of de-stainer (40% methanol, 7.5% acetic acid). The gel was then incubated in Amplify (Amersham, Piscataway, N.J.) for 30 minutes at room temperature and then dried down on Whatman filter paper at 80° C. for 2 hours on a gel dryer. The dried gel was put on Hyperfilm (Amersham) in a film cassette and placed at −80° C. for 5-7 days.

T2 sequence (P11388 whole entry): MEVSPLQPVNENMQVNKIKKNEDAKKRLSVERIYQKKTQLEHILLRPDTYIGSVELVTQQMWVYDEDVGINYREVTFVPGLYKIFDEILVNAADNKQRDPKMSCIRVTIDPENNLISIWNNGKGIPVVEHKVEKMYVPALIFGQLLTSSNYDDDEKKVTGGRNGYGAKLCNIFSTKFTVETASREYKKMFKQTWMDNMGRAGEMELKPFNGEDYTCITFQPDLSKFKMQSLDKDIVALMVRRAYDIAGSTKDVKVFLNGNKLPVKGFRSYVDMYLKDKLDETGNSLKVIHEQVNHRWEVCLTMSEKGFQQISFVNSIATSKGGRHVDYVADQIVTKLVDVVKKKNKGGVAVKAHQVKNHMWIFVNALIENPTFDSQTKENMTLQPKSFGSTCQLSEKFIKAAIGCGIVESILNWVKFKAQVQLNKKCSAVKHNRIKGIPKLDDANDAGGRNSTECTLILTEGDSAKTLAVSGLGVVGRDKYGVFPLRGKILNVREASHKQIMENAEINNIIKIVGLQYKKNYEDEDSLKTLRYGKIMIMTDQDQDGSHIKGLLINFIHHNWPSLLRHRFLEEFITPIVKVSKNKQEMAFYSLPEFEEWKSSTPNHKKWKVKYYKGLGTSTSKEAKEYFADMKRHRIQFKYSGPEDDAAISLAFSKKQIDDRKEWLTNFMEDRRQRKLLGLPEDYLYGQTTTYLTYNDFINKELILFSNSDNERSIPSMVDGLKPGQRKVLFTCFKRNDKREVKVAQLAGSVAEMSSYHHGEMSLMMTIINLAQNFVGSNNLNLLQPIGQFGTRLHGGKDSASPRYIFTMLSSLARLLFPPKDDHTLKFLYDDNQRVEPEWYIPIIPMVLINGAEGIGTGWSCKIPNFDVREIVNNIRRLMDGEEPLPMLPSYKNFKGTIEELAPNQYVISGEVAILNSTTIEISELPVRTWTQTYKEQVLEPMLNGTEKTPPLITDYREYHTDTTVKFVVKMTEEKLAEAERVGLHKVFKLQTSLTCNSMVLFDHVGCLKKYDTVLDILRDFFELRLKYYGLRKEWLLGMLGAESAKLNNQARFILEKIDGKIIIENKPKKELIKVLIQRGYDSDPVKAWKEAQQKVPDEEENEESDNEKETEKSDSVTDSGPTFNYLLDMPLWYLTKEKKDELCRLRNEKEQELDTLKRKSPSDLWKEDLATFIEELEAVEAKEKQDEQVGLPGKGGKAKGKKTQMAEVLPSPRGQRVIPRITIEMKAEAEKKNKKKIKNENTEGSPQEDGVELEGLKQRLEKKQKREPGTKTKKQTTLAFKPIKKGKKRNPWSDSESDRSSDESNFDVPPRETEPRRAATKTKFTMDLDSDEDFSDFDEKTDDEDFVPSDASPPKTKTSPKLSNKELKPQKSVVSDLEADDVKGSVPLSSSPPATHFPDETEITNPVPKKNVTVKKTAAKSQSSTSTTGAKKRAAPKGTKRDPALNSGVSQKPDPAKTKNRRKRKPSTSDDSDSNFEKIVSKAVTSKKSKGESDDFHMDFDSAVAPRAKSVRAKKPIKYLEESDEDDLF
Chain of Topoisomerase II (P11388 whole entry): as above
Chain of tyrosine kinase of Epidermal Growth Factor Receptor (P00533 25-1210): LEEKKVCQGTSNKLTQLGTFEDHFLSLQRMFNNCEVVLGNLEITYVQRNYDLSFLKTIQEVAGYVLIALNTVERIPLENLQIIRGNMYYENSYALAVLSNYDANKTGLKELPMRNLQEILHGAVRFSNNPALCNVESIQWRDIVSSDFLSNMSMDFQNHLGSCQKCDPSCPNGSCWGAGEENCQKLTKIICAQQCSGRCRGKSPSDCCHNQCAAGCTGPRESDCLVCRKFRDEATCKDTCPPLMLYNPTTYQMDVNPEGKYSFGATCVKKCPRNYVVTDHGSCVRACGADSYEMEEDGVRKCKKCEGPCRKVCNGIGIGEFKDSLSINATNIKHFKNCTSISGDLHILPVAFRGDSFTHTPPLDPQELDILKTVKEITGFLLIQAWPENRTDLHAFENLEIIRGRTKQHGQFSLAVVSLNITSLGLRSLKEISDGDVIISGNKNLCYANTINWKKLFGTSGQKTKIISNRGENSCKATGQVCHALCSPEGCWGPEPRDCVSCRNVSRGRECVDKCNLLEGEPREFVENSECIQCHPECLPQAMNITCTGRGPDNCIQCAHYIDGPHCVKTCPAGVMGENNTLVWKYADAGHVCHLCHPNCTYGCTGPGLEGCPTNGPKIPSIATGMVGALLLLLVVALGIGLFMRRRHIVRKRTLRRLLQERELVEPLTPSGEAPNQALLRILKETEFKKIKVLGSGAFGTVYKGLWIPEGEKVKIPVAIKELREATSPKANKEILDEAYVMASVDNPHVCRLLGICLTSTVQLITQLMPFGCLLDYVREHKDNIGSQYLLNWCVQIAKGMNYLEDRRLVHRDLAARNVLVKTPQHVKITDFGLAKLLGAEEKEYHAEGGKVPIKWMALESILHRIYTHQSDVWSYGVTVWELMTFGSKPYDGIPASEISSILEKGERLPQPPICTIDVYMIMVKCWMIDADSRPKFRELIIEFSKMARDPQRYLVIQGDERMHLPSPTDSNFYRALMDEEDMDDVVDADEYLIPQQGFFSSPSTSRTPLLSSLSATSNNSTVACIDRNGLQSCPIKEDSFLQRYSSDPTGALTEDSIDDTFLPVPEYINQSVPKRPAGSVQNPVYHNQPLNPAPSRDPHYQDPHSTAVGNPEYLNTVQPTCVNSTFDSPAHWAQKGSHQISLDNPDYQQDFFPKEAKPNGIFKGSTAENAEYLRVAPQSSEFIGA

Compound	pIC50 [1]	Caspase activity Ratio T-47D (24 hr) ([4]; T-47D, 24 hr)	Caspase activity Ratio T-47D (48 hr) ([4]; T-47D)	further results
COc1ccc(N(C)c2nc(Cl)nc3ccccc23)cc1 [Example 1]	> 6.30	8.7	–	Effect on topoisomerase I-dependent relaxation of supercoiled DNA [2]: no apparent effect; Inhibition of topoisomerase II-dependent relaxation of supercoiled DNA [3]: inhibition of DNA relaxation is substantial
Cc1ccc(N(C)c2nc(Cl)nc3ccccc23)cc1 [Example 2, (2-Chloro-quinazolin-4-yl)-(4-methyl-phenyl)-methyl-amine]	5.52	6.7	–	–
CN(c1ccccc1)c1nc(Cl)nc2ccccc12 [Example 6, (2-Chloro-quinazolin-4-yl)-phenyl-methyl-amine]	5.40	6.7	–	–
COc1ccc(Nc2nc(Cl)nc3ccccc23)cc1 [Example 7, (2-Chloro-quinazolin-4-yl)-(4-methoxy-phenyl)-amine]	< 4.30	1.2	1.0	–
COc1ccc(N(C)c2nc(N)nc3ccccc23)cc1 [Example 12, N^4-(4-Methoxy-phenyl)-N^4-methyl-quinazoline-2,4-diamine]	5.70	5.3	12.8	–
COc1ccc(N(C)c2nc(NC/C=C(\C)CCC=C(C)C)nc3ccccc23)cc1 [Example 13, N^2-(3,7-Dimethyl-octa-2,6-dienyl)-N^4-(4-methoxy-phenyl)-N^4-methyl-quinazoline-2,4-diamine]	5.22	8.9	–	–
COc1ccc(N(C)c2nc(Cl)nc3cc(OC)c(OC)cc23)cc1 [Example 20, (2-Chloro-6,7-dimethoxyquinazolin-4-yl)-(4-methoxy-phenyl)-methyl-amine]	5.52	13.1	–	–
COc1ccc(N(C)c2ncnc3c2CCCC3)cc1 [Example 25]	5.70	–	5.8	–
COc1ccc(OC)c(Nc2nc(Cl)nc3ccccc23)c1 [Example 31, (2-Chloro-quinazolin-4-yl)-(2,5-dimethoxy-phenyl)-amine]	5.00	8.0	14.7	–
COc1ccc(N(C)c2ncnc3ccccc23)cc1 [Example 34, (4-Methoxy-phenyl)-methyl-quinazolin-4-yl-amine]	6.00	7.5	–	GI50 [5]: 503 nM; GI50 [6]: 73 nM; GI50 [7]: 55 nM; GI50 [8]: 59 nM; GI50 [9]: 76 nM; EC50 ([4]; T-47D, 24 hr, read-out: Caspase potency EC50 (nM) T-47D (24 hr)): 7 nM; EC50 ([4]; Table III, time not printed (values repeat Table I 24 hr or 48 hr), read-out: Caspase activation (EC50 nM)): 7 nM
Cc1ccc(N(C)c2ncnc3ccccc23)cc1 [Example 35, (4-Methyl-phenyl)-methyl-quinazolin-4-yl-amine]	5.40	7.2	–	–
COc1ccc(N(C)c2nc(Cl)nc3ccccc23)cn1 [Example 36, (2-Chloro-quinazolin-4-yl)-(6-methoxy-pyridin-3-yl)-methyl-amine]	> 6.00	6.7	–	–
COc1ccc(N(C)c2nc(Cl)nc3ccccc23)c(OC)c1 [Example 41, (2-Chloro-quinazolin-4-yl)-(2,4-dimethoxy-phenyl)-methyl-amine]	> 6.00	–	12.4	–
COc1ccc(OC)c(N(C)c2nc(Cl)nc3ccccc23)c1 [Example 42, (2-Chloro-quinazolin-4-yl)-(2,5-dimethoxy-phenyl)-methyl-amine]	5.30	8.6	14.6	–
COc1cccc(N(C)c2nc(Cl)nc3ccccc23)c1 [Example 43, (2-Chloro-quinazolin-4-yl)-(3-methoxy-phenyl)-methyl-amine]	5.70	–	14.7	–
COc1ccccc1N(C)c1nc(Cl)nc2ccccc12 [Example 44, (2-Chloro-quinazolin-4-yl)-(2-methoxy-phenyl)-methyl-amine]	5.00	–	14.3	–
COc1ccc(N(C)c2nccc3ccccc23)cc1 [Example 65, (Isoquinolin-1-yl)-(4-methoxy-phenyl)-methyl-amine]	5.00	–	13.7	–
COc1ccc(N(C)c2nc(C)nc3ccccc23)cc1 [Example 72, (4-Methoxy-phenyl)-methyl-(2-methyl-quinazolin-4-yl)-amine hydrochloride]	> 6.00	9.0	7.4	–
CN(c1ccccc1)c1ncnc2ccccc12 [R1═Me, R2═R3═R4═H]	–	–	–	pIC50 [10]: < 4.00
COc1cc([C@@H]2c3cc4c(cc3[C@@H](O[C@@H]3O[C@@H]5CO[C@@H](C)O[C@H]5[C@H](O)[C@H]3O)[C@H]3COC(=O)[C@H]23)OCO4)cc(OC)c1O [VP-16, etoposide, reference compound]	–	–	–	Effect on topoisomerase I-dependent relaxation of supercoiled DNA [2]: no apparent effect
Radiolabeled (4-Azido-phenyl)-(2-methyl-quinazolin-4-yl)-methyl-amine [Radiolabeled Example 102 compound]	–	–	–	Binding to Topoisomerase II (UV crosslinking) [11]: binds sufficiently well to Topoisomerase II to crosslink to the enzyme when photoactivated
